According to article PMC6590088 (Science signaling, 2010):
Non-standard residues stand in square brackets, D forms with d. No end group written: not given here. pY = N[C@@H](Cc1ccc(OP(=O)(O)O)cc1)C(=O)O

Tests used:
BKS SH2 domain = assay: Peptide-binding experiments, BKS SH2 domain; settings: table S2B
BRDG1 SH2 domain (WT) = biological target: T1, BRDG1 SH2 domain (WT) (Homo sapiens, UniProt Q9ULZ2); assay: Fluorescence polarization binding assay, wild-type BRDG1 SH2 domain; settings: table S2B
T1 sequence (Q9ULZ2 177-280 limits assumed): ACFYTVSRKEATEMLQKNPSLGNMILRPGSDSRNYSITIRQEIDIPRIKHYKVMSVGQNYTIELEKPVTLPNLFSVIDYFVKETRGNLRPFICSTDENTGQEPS

[1] = biological target: T2, BRDG1 SH2 domain (Asp167-Ser285) C269A (human, UniProt Q9ULZ2 167-285, C269A); assay: crystal structure
T2 sequence (looked up): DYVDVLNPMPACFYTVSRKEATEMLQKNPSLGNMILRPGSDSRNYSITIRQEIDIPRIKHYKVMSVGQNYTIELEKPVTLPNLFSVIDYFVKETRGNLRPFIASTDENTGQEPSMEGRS

[2] = biological target: NTAL pTyr136 peptide with Leu+4 replaced by Ala (human); assay: fluorescence polarisation

NSpY^136ENVLICK [NTAL-pTyr^136]
binding to the BKS SH2 domain (in words) (BKS SH2 domain): bound strongly
affinity for the BRDG1 SH2 domain (in words) (BRDG1 SH2 domain (WT)): high affinities

B1: NTAL phosphopeptide ANSpY136ENVLIAK-NH2 (peptide)
peptide: ANS[pY]ENVLIAK-NH2
modifications: N-terminus assumed
SMILES: CC[C@H](C)[C@H](NC(=O)[C@H](CC(C)C)NC(=O)[C@@H](NC(=O)[C@H](CC(N)=O)NC(=O)[C@H](CCC(=O)O)NC(=O)[C@H](Cc1ccc(OP(=O)(O)O)cc1)NC(=O)[C@H](CO)NC(=O)[C@H](CC(N)=O)NC(=O)[C@H](C)N)C(C)C)C(=O)N[C@@H](C)C(=O)N[C@@H](CCCCN)C(N)=O
binding result [1]: binds

B2: BRDG1 SH2 domain, wild type (fluorescence polarization) (domain or fragment)
chain: ACFYTVSRKEATEMLQKNPSLGNMILRPGSDSRNYSITIRQEIDIPRIKHYKVMSVGQNYTIELEKPVTLPNLFSVIDYFVKETRGNLRPFICSTDENTGQEPS
fold reduction in affinity relative to the wild-type NTAL peptide [2]: 12 fold
